Common to all, as to format: cell-based
The subject of one assay is A549. Description: Cancer cell viability, A549 (CellTiter-Glo). The note with it: Homo sapiens, 72 h, A549 cells, 3 days, read-out: Cellular IC50 (μM) A549. How it is done: Representative Compounds of the Disclosure were tested in A549 (Vendor: ATCC; Cat #CCL-185; Description: lung, carcinoma) and/or LK-2 (Vendor: Riken; Cat #RCB1970; Description: lung, squamous cell carcinoma) cellular viability assays according to the following general protocol. • 1. Observed the cells under microscope. • 2. Aspirated the media and added 5 mL trypsin and incubate for 3 mins. • 3. Added 10 mL fresh media and harvested all the cells in to 15 mL tubes. • 4. Centrifuged the cells at 1000 rpm for 5 mins. • 5. Re-suspended the cells with 11 mL media and took 1 mL to determine the cell number and viability. • 6. Prepared cells suspension at 20 K/mL (A549) or 35 K/mL (LK-2) • 7. Seeded the cells into 96-well plate and incubated for overnight. • 8. […] After 3 days, took out the plates from the incubator and observed the cells under microscope. • 10. Passed a film at the bottom of the plates. • 11. Equilibrated the plate and its contents at room temperature for approximately 30 minutes. • 12. Thawed the CellTiter-Glo® Buffer and equilibrated to room temperature prior to use. • 13. Equilibrated the lyophilized CellTiter-Glo® Substrate to room temperature prior to use. • 14. Transferred 100 ml of CellTiter-Glo® Buffer into the amber bottle containing CellTiter-Glo® Substrate to reconstituted the lyophilized enzyme/substrate mixture. • 15. Mixed by gently vortexing, swirling or inverting the contents to obtain a homogeneous solution. • 16. Added 100 μL CellTiter-Glo® Reagent into each well • 17. Mixed contents for 15 minutes on an orbital shaker to induce cell lysis. • 18. Recorded luminescence with EnSpire machine. • 19. Passed the raw data into the file and analyzed the data with XLfit software.
For orientation: ATP-based viability assays read luminescence as a measure of living cells.

A further assay relates to LK-2. Description: Cancer cell viability, LK-2 (CellTiter-Glo). The note with it: Homo sapiens, LK-2, 72 h, LK-2 cells, 3 days, read-out: Cellular IC50 (μM) LK-2. How it is done:
Representative Compounds of the Disclosure were tested in A549 (Vendor: ATCC; Cat #CCL-185; Description: lung, carcinoma) and/or LK-2 (Vendor: Riken; Cat #RCB1970; Description: lung, squamous cell carcinoma) cellular viability assays according to the following general protocol. • 1. Observed the cells under microscope. • 2. Aspirated the media and added 5 mL trypsin and incubate for 3 mins. • 3. Added 10 mL fresh media and harvested all the cells in to 15 mL tubes. • 4. Centrifuged the cells at 1000 rpm for 5 mins. • 5. Re-suspended the cells with 11 mL media and took 1 mL to determine the cell number and viability. • 6. Prepared cells suspension at 20 K/mL (A549) or 35 K/mL (LK-2) • 7. Seeded the cells into 96-well plate and incubated for overnight. • 8. Added compounds into each well with a HPD300 machine (nine three-fold dilutions typically starting at 30 µM final concentration) and incubated for 3 days. • 9. After 3 days, took out the plates from the incubator and observed the cells under microscope. • 10. Passed a film at the bottom of the plates. • 11. Equilibrated the plate and its contents at room temperature for approximately 30 minutes. • 12. Thawed the CellTiter-Glo® Buffer and equilibrated to room temperature prior to use. • 13. Equilibrated the lyophilized CellTiter-Glo® Substrate to room temperature prior to use. • 14. Transferred 100 ml of CellTiter-Glo® Buffer into the amber bottle containing CellTiter-Glo® Substrate to reconstituted the lyophilized enzyme/substrate mixture. • 15. Mixed by gently vortexing, swirling or inverting the contents to obtain a homogeneous solution. • 16. Added 100 μL CellTiter-Glo® Reagent into each well • 17. Mixed contents for 15 minutes on an orbital shaker to induce cell lysis. • 18. Recorded luminescence with EnSpire machine. • 19. Passed the raw data into the file and analyzed the data with XLfit software.

A further assay addresses T1, Nrf2 (Homo sapiens, UniProt Q16236).
T1 sequence (Q16236 1-605): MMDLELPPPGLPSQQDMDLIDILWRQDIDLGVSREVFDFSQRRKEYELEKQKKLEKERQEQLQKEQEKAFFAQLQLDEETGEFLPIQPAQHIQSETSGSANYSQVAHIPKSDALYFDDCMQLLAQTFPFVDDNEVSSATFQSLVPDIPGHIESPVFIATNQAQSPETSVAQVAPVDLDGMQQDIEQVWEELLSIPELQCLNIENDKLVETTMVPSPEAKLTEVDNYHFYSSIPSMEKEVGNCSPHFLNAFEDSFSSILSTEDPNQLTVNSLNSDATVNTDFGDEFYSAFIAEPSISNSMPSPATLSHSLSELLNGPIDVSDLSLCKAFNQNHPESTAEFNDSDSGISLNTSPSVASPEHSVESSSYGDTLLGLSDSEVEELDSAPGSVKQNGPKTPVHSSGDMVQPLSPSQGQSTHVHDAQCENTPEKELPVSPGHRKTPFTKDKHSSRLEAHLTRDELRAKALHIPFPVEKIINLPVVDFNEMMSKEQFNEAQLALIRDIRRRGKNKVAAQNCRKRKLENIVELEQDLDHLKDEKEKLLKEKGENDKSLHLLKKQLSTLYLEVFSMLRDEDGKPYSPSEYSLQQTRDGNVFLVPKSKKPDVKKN
Description: Nrf2 degradation in A549 HiBiT-Nrf2 cells, Nano-Glo HiBiT lytic detection (HiBiT readout). Details: host or cells: A549 HiBiT-Nrf2 cells (engineered line bought from Promega). How it is done: A549 HiBiT-Nrf2 cells (Promega, Cat. No. CS3023219) were seeded into 384-well plates at cell density of 5,000 cells/well in 40 μL of cell culture medium (Ham's F-12 Nutrient Mix supplemented with 10% FBS and 1% antibiotic-antimycotic).
The next day, cells were treated with representative Compounds of the Disclosure and incubated for 6 h and 20 h at 37° C., 5% CO2. Staurosporine was used as a control.
At the end of incubation Nrf2 degradation (HiBiT readout) and cell viability (CellTiter-Glo readout) were determined. For HiBiT readout, Nano-Glo HiBiT Reagent mix (Promega, Cat. No. N3050) was added to wells, plates were incubated 2 min on an orbital shaker and incubated at room temperature in the dark for additional 30 minutes. At the end of incubation luminescence was measured using ultrasensitive luminescence mode (Envision, Perkin Elmer).
On the technique in general: The HiBiT peptide binds its large partner to form an active luciferase.

The mark [1] stands for this setting: 6 h, read-out: DC50 (nM) at 6 h.
The mark [2] stands for this setting: 20 h, read-out: DC50 (nM) at 20 h.

Molecules are shown by their SMILES. Read-outs that look alike come from different tables or passages of the source.

IC50 and DC50 data for eleven compounds are collected here from patent US20260055097A9, “NRF2 PROTEIN DEGRADERS” (Ganymede Oncology, Inc., priority 2022, published 2026).

Turning to `Cc1ccccc1C(=O)N1CCc2cc(-c3nc(NC(=O)Cc4cccc(OCCCNc5cccc6c5C(=O)N(C5CCC(=O)NC5=O)C6=O)c4)sc3C)ccc21` (stereo not shown) [Cpd. No. 6, 2-(3-(3-((2-(2,6-dioxopiperidin-3-yl)-1,3-dioxoisoindolin-4-yl)amino)propoxy)phenyl)-N-(5-methyl-4-(1-(2-methylbenzoyl)indolin-5-yl)thiazol-2-yl)acetamide], the IC50 in the assay on A549 and in the assay with LK-2 was greater than 30 µM each time.

Regarding `Cc1ccccc1C(=O)N1CCc2cc(-c3nc(NC(=O)Cc4cccc(OCCOCCOCCOc5ccc6c(c5)C(=O)N(C5CCC(=O)NC5=O)C6=O)c4)sc3C)ccc21` (stereo not shown) [Cpd. No. 19, 2-(3-(2-(2-(2-((2-(2,6-dioxopiperidin-3-yl)-1,3-dioxoisoindolin-5-yl)oxy)ethoxy)ethoxy)ethoxy)phenyl)-N-(5-methyl-4-(1-(2-methylbenzoyl)indolin-5-yl)thiazol-2-yl)acetamide], the IC50 (commonly the concentration needed to halve the response being measured) is 11 µM in the assay with A549 and 2.5 µM with LK-2.

Consider `CC(=O)N1CCc2cc(-c3nc(NC(=O)Cc4cccc(OCCCCCNc5cccc6c5C(=O)N(C5CCC(=O)NC5=O)C6=O)c4)sc3C)ccc21` (stereo not shown) [Cpd. No. 67, N-(4-(1-acetylindolin-5-yl)-5-methylthiazol-2-yl)-2-(3-((5-((2-(2,6-dioxopiperidin-3-yl)-1,3-dioxoisoindolin-4-yl)amino)pentyl)oxy)phenyl)acetamide], for which the IC50 in the assay with A549 is 0.75 µM. Besides, the 50% degradation concentration (DC50) on Nrf2 (setting [1]) and on Nrf2 (setting [2]) was less than 300 nM each time.

`Cc1sc(NC(=O)Cc2cccc(OCCC3CCN(c4ccc5c(c4)C(=O)N(C4CCC(=O)NC4=O)C5=O)CC3)c2)nc1-c1ccc2c(c1)CCN2C(=O)C1CC1` (stereo not shown) [Cpd. No. 68, N-(4-(1-(cyclopropanecarbonyl)indolin-5-yl)-5-methylthiazol-2-yl)-2-(3-(2-(1-(2-(2,6-dioxopiperidin-3-yl)-1,3-dioxoisoindolin-5-yl)piperidin-4-yl)ethoxy)phenyl)acetamide]: the IC50 in the assay with A549 is greater than 30 µM. The DC50 (in general, the concentration giving 50% degradation) at Nrf2 (setting [2]) is less than 300 nM.

Take `Cc1sc(NC(=O)Cc2cccc(OCCCCCNc3cccc4c3CN(C3CCC(=O)NC3=O)C4=O)c2)nc1-c1ccc2c(c1)CCN2C(=O)C1CC1` (stereo not shown) [Cpd. No. 69, N-(4-(1-(cyclopropanecarbonyl)indolin-5-yl)-5-methylthiazol-2-yl)-2-(3-((5-((2-(2,6-dioxopiperidin-3-yl)-1-oxoisoindolin-4-yl)amino)pentyl)oxy)phenyl)acetamide]: the IC50 in the assay with A549 was determined as 0.18 µM. Further, the DC50 on Nrf2 (setting [1]) and at Nrf2 (setting [2]) was less than 300 nM each time.

On to `Cc1sc(NC(=O)Cc2cccc(OCCCCCCCCNc3cccc4c3C(=O)N(C3CCC(=O)NC3=O)C4=O)c2)nc1-c1ccc2c(c1)CCN2C(=O)C1CC1` (stereo not shown) [Cpd. No. 72, N-(4-(1-(cyclopropanecarbonyl)indolin-5-yl)-5-methylthiazol-2-yl)-2-(3-((8-((2-(2,6-dioxopiperidin-3-yl)-1,3-dioxoisoindolin-4-yl)amino)octyl)oxy)phenyl)acetamide], for which the IC50 in the assay on A549 was found to be 0.23 µM. The DC50 on Nrf2 (setting [2]) was greater than 3000 nM.

For the compound `Cc1ncccc1C(=O)N1CCc2cc(-c3nc(NC(=O)Cc4cccc(OCCOCCNc5cccc6c5C(=O)N(C5CCC(=O)NC5=O)C6=O)c4)sc3C)ccc21` (stereo not shown) [Cpd. No. 76, 2-(3-(2-(2-((2-(2,6-dioxopiperidin-3-yl)-1,3-dioxoisoindolin-4-yl)amino)ethoxy)ethoxy)phenyl)-N-(5-methyl-4-(1-(2-methylnicotinoyl)indolin-5-yl)thiazol-2-yl)acetamide], the concentration for half-maximal inhibition (IC50) with A549 stood at 0.011 µM. Moreover, the DC50 at Nrf2 (setting [1]) is greater than 3000 nM; at Nrf2 (setting [2]) it was less than 300 nM.

As for `Cc1cnccc1C(=O)N1CCc2cc(-c3nc(NC(=O)Cc4cccc(OCCOCCNc5cccc6c5C(=O)N(C5CCC(=O)NC5=O)C6=O)c4)sc3C)ccc21` (stereo not shown) [Cpd. No. 77, 2-(3-(2-(2-((2-(2,6-dioxopiperidin-3-yl)-1,3-dioxoisoindolin-4-yl)amino)ethoxy)ethoxy)phenyl)-N-(5-methyl-4-(1-(3-methylisonicotinoyl)indolin-5-yl)thiazol-2-yl)acetamide], the IC50 in the assay on A549 is 0.0077 µM. The DC50 at Nrf2 (setting [1]) was greater than 3000 nM; at Nrf2 (setting [2]), less than 300 nM.

Turning to `Cc1ccncc1C(=O)N1CCc2cc(-c3nc(NC(=O)Cc4cccc(OCCOCCNc5cccc6c5C(=O)N(C5CCC(=O)NC5=O)C6=O)c4)sc3C)ccc21` (stereo not shown) [Cpd. No. 78, 2-(3-(2-(2-((2-(2,6-dioxopiperidin-3-yl)-1,3-dioxoisoindolin-4-yl)amino)ethoxy)ethoxy)phenyl)-N-(5-methyl-4-(1-(4-methylnicotinoyl)indolin-5-yl)thiazol-2-yl)acetamide], in the assay with A549, the IC50 is 0.0059 µM. Besides, the DC50 was greater than 3000 nM on Nrf2 (setting [1]) and less than 300 nM at Nrf2 (setting [2]).

For the compound `Cc1cccnc1C(=O)N1CCc2cc(-c3nc(NC(=O)Cc4cccc(OCCOCCNc5cccc6c5C(=O)N(C5CCC(=O)NC5=O)C6=O)c4)sc3C)ccc21` (stereo not shown) [Cpd. No. 79, 2-(3-(2-(2-((2-(2,6-dioxopiperidin-3-yl)-1,3-dioxoisoindolin-4-yl)amino)ethoxy)ethoxy)phenyl)-N-(5-methyl-4-(1-(3-methylpicolinoyl)indolin-5-yl)thiazol-2-yl)acetamide], the IC50 with A549 was found to be 0.043 µM. In addition, the DC50 was greater than 3000 nM on Nrf2 (setting [1]) and less than 300 nM on Nrf2 (setting [2]).

For the compound `COc1ccncc1C(=O)N1CCc2cc(-c3nc(NC(=O)Cc4cccc(OCCOCCNc5cccc6c5C(=O)N(C5CCC(=O)NC5=O)C6=O)c4)sc3C)ccc21` (stereo not shown) [Cpd. No. 80, 2-(3-(2-(2-((2-(2,6-dioxopiperidin-3-yl)-1,3-dioxoisoindolin-4-yl)amino)ethoxy)ethoxy)phenyl)-N-(4-(1-(4-methoxynicotinoyl)indolin-5-yl)-5-methylthiazol-2-yl)acetamide], the IC50 in the assay on A549 was determined as 0.075 µM. For the same compound, the DC50 on Nrf2 (setting [1]) was greater than 3000 nM.
